Laboratory results: patent US8466113B2, “4-isopropylphenyl glucitol compounds as SGLT1 inhibitors” (Taisho Pharmaceutical Co., Ltd., priority 2009, dated 2013)

Experiments:
[1] = test system: streptozotocin (STZ)-induced diabetic rats; experiment: Oral glucose tolerance test (OGTT) in streptozotocin-induced diabetic model rats; type: in vivo, rat; conditions: oral 1 mg/kg, glucose 2 g/kg, versus vehicle control
Method: (1) Preparation of Diabetic Model Rats
SD/IGS rats at 7 weeks of age (male, Charles River Laboratories Japan Inc.) were fasted for about 16 hours and then injected with 50 mg/kg streptozotocin (STZ) via the tail vein under ether anesthesia to prepare diabetic model rats. Similarly, another group of SD/IGS rats at 7 weeks of age was injected with 1.25 mmol/L citric acid in physiological saline (1 mL/kg) via the tail vein under ether anesthesia to prepare normal control rats. At one week after injection of STZ or 1.25 mmol/L citric acid in physiological saline, the rats were provided for an oral glucose tolerance test.
(2) Oral Glucose Tolerance Test (OGTT)
After the diabetic model rats were fasted for about 16 hours, drug groups were each orally administered with a drug (1 mg/kg) dissolved in a 0.5% aqueous carboxymethylcellulose sodium (CMC) solution, while the control group was orally administered with a 0.5% aqueous CMC solution alone. The drugs used were compounds 10, 11 and 33 disclosed in WO07/136116, as well as compounds 1-2, 5-2, 6-2, 13-2 and 15-2 according to the present invention. Immediately after drug administration, a glucose solution (2 g/kg) was orally administered and blood was collected at 6 points in total: before drug administration (0 hour) and 0.25, 0.5, 1, 1.5 and 2 hours after oral administration.
Blood was collected from the tail vein of each rat without anesthesia using a heparin-coated blood collection tube, and centrifuged to separate plasma. Plasma glucose concentrations were quantified by measurement with a Glucose CII-Test Wako (Wako Pure Chemical Industries, Ltd., Japan). To determine the intensity of hypoglycemic effect, the blood glucose level before drug administration was subtracted from each blood glucose level measured until one hour after oral administration in each drug group, and the resulting values were analyzed by the trapezoidal method to calculate an increment in the area under the curve for glucose (ΔAUC), which was expressed as a decrease relative to ΔAUC of the control group.

[2] = molecular target: T1, human SGLT2 (Homo sapiens, UniProt P31639); experiment: Inhibition test for sodium-dependent sugar uptake in CHO-K1 cells stably expressing human SGLT2, Method B; type: cell-based; conditions: uptake 37° C., 60 minutes, read-out: IC50 for hSGLT2 Method B
T1 construct: expressed in transfected cells; host or cells: CHO-K1
T1 sequence (P31639 1-672): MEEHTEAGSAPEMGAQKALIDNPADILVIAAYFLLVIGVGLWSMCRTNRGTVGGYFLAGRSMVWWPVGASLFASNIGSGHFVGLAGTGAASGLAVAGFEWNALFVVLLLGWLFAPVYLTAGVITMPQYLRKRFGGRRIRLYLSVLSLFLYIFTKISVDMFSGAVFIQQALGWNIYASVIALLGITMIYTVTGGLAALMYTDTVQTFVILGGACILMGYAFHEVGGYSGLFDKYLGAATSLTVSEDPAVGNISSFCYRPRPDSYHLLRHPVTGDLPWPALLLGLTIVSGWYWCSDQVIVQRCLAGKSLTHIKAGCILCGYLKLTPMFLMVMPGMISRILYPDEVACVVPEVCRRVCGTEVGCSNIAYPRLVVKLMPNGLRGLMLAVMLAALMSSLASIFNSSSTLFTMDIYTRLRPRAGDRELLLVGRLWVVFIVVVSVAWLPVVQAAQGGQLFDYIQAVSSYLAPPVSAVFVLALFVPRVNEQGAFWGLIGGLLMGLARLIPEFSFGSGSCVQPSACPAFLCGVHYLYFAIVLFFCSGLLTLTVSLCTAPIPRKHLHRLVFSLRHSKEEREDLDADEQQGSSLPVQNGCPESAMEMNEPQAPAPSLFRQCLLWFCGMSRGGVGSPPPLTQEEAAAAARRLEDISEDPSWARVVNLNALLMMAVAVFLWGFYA
Method: (2) Creation of CHO-K1 Cells Stably Expressing Human SGLT2
Method B: A plasmid vector expressing human SGLT2 protein was transfected into CHO-K1 cells using lipofectamine LTX (Invitrogen). The cells were cultured in the presence of 1000 μg/mL geneticin to select resistant strains, followed by screening in the system shown below using sugar uptake capacity as an indicator to obtain SGLT2-expressing cells.
(3) Inhibition Test for Sodium-Dependent Sugar Uptake in Stably Expressing Cells
The stably expressing cells prepared above were used in the following test.
Pretreatment buffer (140 mM choline chloride, 2 mM KCl, 1 mM CaCl2, 1 mM MgCl2, 10 mM HEPES/5 mM Tris, pH 7.4) was added in a volume of 200 μL to the cells stably expressing SGLT1 or 2 mL for Method A and 200 μL for Method B to the cells stably expressing SGLT2, followed by incubation for 20 minutes. The pretreatment buffer was removed and replaced by uptake buffer containing a test compound (1 mM methyl α-D-glucopyranoside (containing [^14C]methyl α-D-glucopyranoside), 140 mM NaCl, 2 mM KCl, 1 mM CaCl2, 1 mM MgCl2, 10 mM HEPES/5 mM Tris, pH 7.4) in a volume of 75 μL for SGLT1 and SGLT2 in Method B or 200 μL for SGLT2 in Method A. Uptake reaction was performed at 37° C. for 30 minutes (SGLT1) or 60 minutes (SGLT2). After the reaction, the cells were washed twice with washing buffer (10 mM methyl α-D-glucopyranoside, 140 mM choline chloride, 2 mM KCl, 1 mM CaCl2, 1 mM MgCl2, 10 mM HEPES/5 mM Tris, pH 7.4) in a volume of 200 μL for SGLT1 and SGLT2 in Method B or 2 mL for SGLT2 in Method A, and then dissolved in a 0.25 M NaOH solution (75 μL for SGLT1 and SGLT2 in Method B or 400 μL for SGLT2 in Method A). A liquid scintillator (Perkin Elmer) was added and mixed well with each sample, followed by measurement of radioactivity using a β-ray analyzer. For the control group, uptake buffer containing no test compound was prepared. Moreover, another uptake buffer containing choline chloride instead of NaCl was also prepared for basal uptake.
For determination of IC50 values, test compounds prepared at 6 appropriate concentrations were used and their concentrations required for 50% inhibition of the amount of sugar uptake (IC50 values) were calculated relative to the amount of sugar uptake in the control group (100%).

SMILES	STZ rats OGTT % inhibition ΔAUC0-1 h (mg/dl) @1 mg/kg/po [1] [%]	IC50 [2] [nM]
Cc1cc(/C=C/C(C)(C)C(=O)NC(C)(C)C(=O)NCCN(C)C)ccc1Cc1cc([C@@H]2O[C@H](CO)[C@@H](O)[C@H](O)[C@H]2O)c(O)cc1C(C)C [Example 1-2]	74	74
Cc1cc(/C=C/C(C)(C)C(=O)NC(C)(C)C(=O)N2CCC(N(C)C)CC2)ccc1Cc1cc([C@@H]2O[C@H](CO)[C@@H](O)[C@H](O)[C@H]2O)c(O)cc1C(C)C [Example 5-2]	66	30
Cc1cc(/C=C/C(C)(C)C(=O)NC(C)(C)C(=O)NCC(C)(C)N)ccc1Cc1cc([C@@H]2O[C@H](CO)[C@@H](O)[C@H](O)[C@H]2O)c(O)cc1C(C)C [Example 6-2]	64	64
COc1cc(C(C)C)c(Cc2ccc(/C=C/C(C)(C)C(=O)NC(C)(C)C(=O)NCC(C)(C)N)cc2C)cc1[C@@H]1O[C@H](CO)[C@@H](O)[C@H](O)[C@H]1O [Example 13-2]	54	322
COc1cc(C(C)C)c(Cc2ccc(/C=C/C(C)(C)C(=O)NC(C)(C)C(=O)NCCN(C)C)cc2)cc1[C@@H]1O[C@H](CO)[C@@H](O)[C@H](O)[C@H]1O [Example 15-2]	62	20
